ChEMBL document CHEMBL1201862, “PubChem BioAssay data set” (2004)
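1) Cells in 96-well plates. 2) Compound, 48 h, 5 concentrations. 3) Linear interpolation between surrounding doses. 4) Unreached endpoint = highest concentration. GI50: concentration for 50% inhibition of growth.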 Calls of active or inactive are those of the source. Cut-off read from the data, not from the text of the source: active = GI50 up to about 1.1 µM and inactive = higher.

Legend:
Assay in all cases: NCI tumour cell line growth inhibition, 48 h
SW-620 = tested on: SW-620
OVCAR-3 = tested on: OVCAR-3
MOLT-4 = tested on: MOLT-4
OVCAR-5 = tested on: OVCAR-5
IGROV-1 = tested on: IGROV-1
HCC 2998 = tested on: HCC 2998
SK-MEL-5 = tested on: SK-MEL-5
MDA-MB-435 = tested on: MDA-MB-435
NCI-H460 = tested on: NCI-H460
KM12 = tested on: KM12
Malme-3M = tested on: Malme-3M
UACC-62 = tested on: UACC-62
CCRF-CEM = tested on: CCRF-CEM
NCI-H23 = tested on: NCI-H23
HCT-15 = tested on: HCT-15
RPMI-8226 = tested on: RPMI-8226
HL-60 = tested on: HL-60
SK-MEL-2 = tested on: SK-MEL-2
A498 = tested on: A498
DU-145 = tested on: DU-145

Structure (SMILES) | GI50 (SW-620) | GI50 (OVCAR-3) | GI50 (MOLT-4) | GI50 (OVCAR-5) | GI50 (IGROV-1) | GI50 (HCC 2998) | GI50 (SK-MEL-5) | GI50 (MDA-MB-435) | GI50 (NCI-H460) | GI50 (KM12) | GI50 (Malme-3M) | GI50 (UACC-62) | GI50 (CCRF-CEM) | GI50 (NCI-H23) | GI50 (HCT-15) [µM] | GI50 (RPMI-8226) | GI50 (HL-60) | GI50 (SK-MEL-2) | GI50 (A498) | GI50 (DU-145)
Cn1c(S)nnc1-c1csc(-c2ccc(Cl)cc2)n1 | 32.6 µM (inactive) | 19.1 µM (inactive) | 55.8 µM (inactive) | 34.4 µM (inactive) | 16 µM (inactive) | > 100 µM (inactive) | > 100 µM (inactive) | > 100 µM (inactive) | 21.3 µM (inactive) | > 100 µM (inactive) | 30.3 µM (inactive) | 23.9 µM (inactive) | > 100 µM (inactive) | 15 µM (inactive) | 53.8 | – | – | – | – | –
CC1NOC(NS(=O)(=O)c2ccc(/N=N/c3c(O)c(C(=O)O)cc4ccccc34)cc2)C1C (stereo unspecified) | > 100 µM (inactive) | > 100 µM (inactive) | > 100 µM (inactive) | > 100 µM (inactive) | > 100 µM (inactive) | > 100 µM (inactive) | > 100 µM (inactive) | > 100 µM (inactive) | > 100 µM (inactive) | 57.8 µM (inactive) | > 100 µM (inactive) | > 100 µM (inactive) | > 100 µM (inactive) | – | > 100 | > 100 µM (inactive) | > 100 µM (inactive) | > 100 µM (inactive) | – | –
C[Si](C)(C)/C=C/CN1C(=O)CCC1O (stereo unspecified) | > 100 µM (inactive) | > 100 µM (inactive) | > 100 µM (inactive) | > 100 µM (inactive) | > 100 µM (inactive) | > 100 µM (inactive) | > 100 µM (inactive) | – | > 100 µM (inactive) | > 100 µM (inactive) | > 100 µM (inactive) | > 100 µM (inactive) | > 100 µM (inactive) | > 100 µM (inactive) | > 100 | > 100 µM (inactive) | > 100 µM (inactive) | > 100 µM (inactive) | > 100 µM (inactive) | –
Nn1c(S)nnc1N/N=C1/C(=O)Nc2c(Cl)cc(Cl)cc21 | > 100 µM (inactive) | > 100 µM (inactive) | 37.2 µM (inactive) | > 100 µM (inactive) | 92.9 µM (inactive) | 58.2 µM (inactive) | > 100 µM (inactive) | – | > 100 µM (inactive) | > 100 µM (inactive) | > 100 µM (inactive) | > 100 µM (inactive) | 37.1 µM (inactive) | > 100 µM (inactive) | > 100 | > 100 µM (inactive) | 69.2 µM (inactive) | > 100 µM (inactive) | 65.5 µM (inactive) | –
c1cc2sc1CSCCSCCSC2 | > 100 µM (inactive) | > 100 µM (inactive) | > 100 µM (inactive) | > 100 µM (inactive) | > 100 µM (inactive) | > 100 µM (inactive) | > 100 µM (inactive) | > 100 µM (inactive) | > 100 µM (inactive) | > 100 µM (inactive) | – | > 100 µM (inactive) | > 100 µM (inactive) | > 100 µM (inactive) | > 100 | – | > 100 µM (inactive) | – | – | > 100 µM (inactive)
COc1ccc(OC)c(/C=C2/C(=O)N/C(=N\C(C)=O)N2C)c1 | > 100 µM (inactive) | > 100 µM (inactive) | > 100 µM (inactive) | > 100 µM (inactive) | > 100 µM (inactive) | > 100 µM (inactive) | > 100 µM (inactive) | > 100 µM (inactive) | > 100 µM (inactive) | > 100 µM (inactive) | – | > 100 µM (inactive) | > 100 µM (inactive) | > 100 µM (inactive) | > 100 | – | 95.1 µM (inactive) | > 100 µM (inactive) | – | > 100 µM (inactive)
